Experimental data published in US12655116B2, “Substituted isophthalic acid diamides” (Bayer Aktiengesellschaft, priority 2020, dated 2026).

What was measured:
MATIN [1] = assay: Post-emergence herbicidal action against MATIN; assay type: in vivo, Matricaria inodora; details: Tripleurospermum inodorum, 504 h; for pest or weed control at 20 g/ha: dosage 20 g/ha
Summary of the method: (§1)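 Weeds in sandy loam soil received a post-emergence spray at the one-leaf stage. Compounds were applied as WP or EC in water, 600 to 800 l/ha, with 0.2% wetting agent. Activity in % was judged visually after roughly 3 weeks against untreated plants.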

LOLRI = assay: Pre-emergence herbicidal action against LOLRI; assay type: in vivo, Lolium rigidum; details: Lolium rigidum, 504 h, 80 g/ha
Summary of the method: (§2)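 Visual rating at 3 weeks vs untreated pots; 0–100% scale, 100% = plants died. Treatment: aqueous WP/EC spray onto covering soil, 600–800 l/ha, 0.2% wetter, seeds in sandy loam.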

VIOTR [2] = assay: Pre-emergence herbicidal action against VIOTR; assay type: in vivo, Viola tricolor; details: Viola tricolor, 504 h; for pest or weed control at 20 g/ha: dosage 20 g/ha; for pest or weed control at 80 g/ha: dosage 80 g/ha
Summary of the method: as §2

VERPE = assay: Pre-emergence herbicidal action against VERPE; assay type: in vivo, Veronica persica; details: Veronica persica, 504 h, dosage 80 g/ha
Summary of the method: as §2

AVEFA [3] = assay: Pre-emergence herbicidal action against AVEFA; assay type: in vivo, Avena fatua; details: Avena fatua, 504 h, pre-emergence; for pest or weed control at 20 g/ha: scored visually after 3 weeks, 100% = plants have died, 0% = like control plants
Summary of the method: as §2

VIOTR [4] = assay: Post-emergence herbicidal action against VIOTR; assay type: in vivo, Viola tricolor; details: Viola tricolor, 504 h
Summary of the method: as §1

ECHCG [5] = assay: Pre-emergence herbicidal action against ECHCG; assay type: in vivo, Echinochloa crus-galli; details: Echinochloa crus-galli, 504 h
Summary of the method: as §2

ABUTH [6] = assay: Post-emergence herbicidal action against ABUTH; assay type: in vivo, Abutilon theophrasti; details: Abutilon theophrasti, 504 h, visual assessment about 3 weeks after treatment vs untreated controls; for pest or weed control at 5 g/ha: dosage 5 g/ha; for pest or weed control at 20 g/ha: dosage 20 g/ha
Summary of the method: as §1

STEME [7] = assay: Pre-emergence herbicidal action against STEME; assay type: in vivo, Stellaria media; details: Stellaria media, 504 h; for pest or weed control at 20 g/ha: dosage 20 g/ha; for pest or weed control at 80 g/ha: dosage 80 g/ha
Summary of the method: as §2

POLCO [8] = assay: Post-emergence herbicidal action against POLCO; assay type: in vivo, Polygonum convolvulus; details: Fallopia convolvulus, 504 h, dosage 20 g/ha
Summary of the method: as §1

ALOMY [9] = assay: Post-emergence herbicidal action against ALOMY; assay type: in vivo, Alopecurus myosuroides; details: Alopecurus myosuroides, 504 h, dosage 20 g/ha, visual assessment about 3 weeks after treatment vs untreated controls
Summary of the method: as §1

HORMU = assay: Pre-emergence herbicidal action against HORMU; assay type: in vivo, Hordeum murinum; details: for pest or weed control at 80 g/ha: Hordeum murinum, 504 h, pre-emergence
Summary of the method: as §2

ALOMY [10] = assay: Pre-emergence herbicidal action against ALOMY; assay type: in vivo, Alopecurus myosuroides; details: Alopecurus myosuroides, 504 h, pre-emergence; for pest or weed control at 80 g/ha: scored visually after 3 weeks vs untreated controls (100% = plants have died, 0% = like control plants); for pest or weed control at 20 g/ha: scored visually after 3 weeks, 100% = plants have died, 0% = like control plants
Summary of the method: as §2

DIGSA [11] = assay: Post-emergence herbicidal action against DIGSA; assay type: in vivo, Digitaria sanguinalis; details: Digitaria sanguinalis, 504 h
Summary of the method: as §1

MATIN [12] = assay: Pre-emergence herbicidal action against MATIN; assay type: in vivo, Matricaria inodora; details: Tripleurospermum inodorum, 504 h; for pest or weed control at 20 g/ha: dosage 20 g/ha; for pest or weed control at 80 g/ha: dosage 80 g/ha
Summary of the method: as §2

AMARE [13] = assay: Post-emergence herbicidal action against AMARE; assay type: in vivo, Amaranthus retroflexus; details: Amaranthus retroflexus, 504 h, 20 g/ha, visual assessment about 3 weeks after treatment, 100% = plants have died, 0% = like control plants
Summary of the method: as §1

STEME [14] = assay: Post-emergence herbicidal action against STEME; assay type: in vivo, Stellaria media; details: Stellaria media, 504 h; for pest or weed control at 5 g/ha: dosage 5 g/ha
Summary of the method: as §1

SETVI [15] = assay: Pre-emergence herbicidal action against SETVI; assay type: in vivo, Setaria viridis; details: Setaria viridis, 504 h; for pest or weed control at 80 g/ha: dosage 80 g/ha
Summary of the method: as §2

DIGSA [16] = assay: Pre-emergence herbicidal action against DIGSA; assay type: in vivo, Digitaria sanguinalis; details: Digitaria sanguinalis, 504 h; for pest or weed control at 20 g/ha: dosage 20 g/ha; for pest or weed control at 80 g/ha: dosage 80 g/ha
Summary of the method: as §2

ABUTH [17] = assay: Pre-emergence herbicidal action against ABUTH; assay type: in vivo, Abutilon theophrasti; details: Abutilon theophrasti, 504 h; for pest or weed control at 80 g/ha: scored visually after 3 weeks vs untreated controls (100% = plants have died, 0% = like control plants); for pest or weed control at 20 g/ha: dosage 20 g/ha, scored visually after 3 weeks vs untreated controls, 100% = plants have died, 0% = like control plants, read-out: Pre-emergence action against ABUTH (herbicidal activity in percent)
Summary of the method: as §2

AVEFA [18] = assay: Post-emergence herbicidal action against AVEFA; assay type: in vivo, Avena fatua; details: Avena fatua, 504 h, 20 g/ha, visual assessment about 3 weeks after treatment, 100% = plants have died, 0% = like control plants
Summary of the method: as §1

AMARE [19] = assay: Pre-emergence herbicidal action against AMARE; assay type: in vivo, Amaranthus retroflexus; details: Amaranthus retroflexus, 504 h, scored visually after 3 weeks vs untreated controls, 100% = plants have died, 0% = like control plants
Summary of the method: as §2

ECHCG [20] = assay: Post-emergence herbicidal action against ECHCG; assay type: in vivo, Echinochloa crus-galli; details: Echinochloa crus-galli, 504 h, dosage 20 g/ha
Summary of the method: as §1

PHBPU [21] = assay: Post-emergence herbicidal action against PHBPU; assay type: in vivo, Pharbitis purpurea; details: Ipomoea purpurea, 504 h, dosage 20 g/ha
Summary of the method: as §1

POLCO [22] = assay: Pre-emergence herbicidal action against POLCO; assay type: in vivo, Polygonum convolvulus; details: Fallopia convolvulus, 504 h, dosage 80 g/ha
Summary of the method: as §2

SETVI [23] = assay: Post-emergence herbicidal action against SETVI; assay type: in vivo, Setaria viridis; details: Setaria viridis, 504 h
Summary of the method: as §1

PHBPU [24] = assay: Pre-emergence herbicidal action against PHBPU; assay type: in vivo, Pharbitis purpurea; details: Ipomoea purpurea, 504 h, dosage 80 g/ha
Summary of the method: as §2

Row | Structure (SMILES) | pest or weed control at 20 g/ha (MATIN [1]) [%] | pest or weed control at 80 g/ha (LOLRI) [%] | pest or weed control at 20 g/ha (VIOTR [2]) [%] | pest or weed control at 80 g/ha (VIOTR [2]) [%] | pest or weed control at 80 g/ha (VERPE) [%] | pest or weed control at 80 g/ha (AVEFA [3]) [%] | pest or weed control at 20 g/ha (AVEFA [3]) [%] | pest or weed control at 5 g/ha (VIOTR [4]) [%] | pest or weed control at 20 g/ha (VIOTR [4]) [%] | pest or weed control at 80 g/ha (ECHCG [5]) [%] | pest or weed control at 5 g/ha (ABUTH [6]) [%] | pest or weed control at 20 g/ha (ABUTH [6]) [%] | pest or weed control at 20 g/ha (STEME [7]) [%] | pest or weed control at 80 g/ha (STEME [7]) [%] | pest or weed control at 20 g/ha (POLCO [8]) [%] | pest or weed control at 20 g/ha (ALOMY [9]) [%] | pest or weed control at 80 g/ha (HORMU) [%] | pest or weed control at 80 g/ha (ALOMY [10]) [%] | pest or weed control at 20 g/ha (ALOMY [10]) [%] | pest or weed control at 5 g/ha (DIGSA [11]) [%] | also measured
1 | CCNC(=O)c1c(C(F)(F)F)ccc(C(=O)Nc2nnnn2CC)c1Cl [Example 2-130] | 80 | 100 | 100 | 100 | 80 | 100 | 90 | 90 | 100 | 100 | 90 | 90 | 100 | 100 | 80 | 80 | 100 | 100 | 90 | 80 | pest or weed control at 20 g/ha (ECHCG [5]; 20 g/ha): 80%; Pre-emergence action against HORMU (HORMU; 20 g/ha, scored visually after 3 weeks, 100% = plants have died, 0% = like control plants): 90%; pest or weed control at 20 g/ha (DIGSA [11]): 80%; pest or weed control at 20 g/ha (MATIN [12]): 100%; pest or weed control at 80 g/ha (MATIN [12]): 100%; pest or weed control at 20 g/ha (AMARE [13]): 100%; pest or weed control at 20 g/ha (STEME [14]): 80%; pest or weed control at 5 g/ha (STEME [14]): 80%; pest or weed control at 20 g/ha (SETVI [15]; dosage 20 g/ha): 90%; pest or weed control at 80 g/ha (SETVI [15]): 100%; pest or weed control at 20 g/ha (DIGSA [16]): 100%; pest or weed control at 80 g/ha (DIGSA [16]): 100%; pest or weed control at 80 g/ha (ABUTH [17]): 100%; pest or weed control at 20 g/ha (ABUTH [17]): 100%; pest or weed control at 20 g/ha (AVEFA [18]): 90%; pest or weed control at 20 g/ha (AMARE [19]): 100%; pest or weed control at 80 g/ha (AMARE [19]): 100%; pest or weed control at 20 g/ha (ECHCG [20]): 80%
2 | CCn1nnnc1NC(=O)c1ccc(C(F)F)c(C(=O)NC2CC2)c1Cl [Example 2-149] | 100 | 90 | 100 | 100 | 80 | 100 | 80 | 100 | 100 | 90 | 80 | 100 | 100 | 100 | 80 | 80 | 90 | 90 | 80 | 100 | pest or weed control at 5 g/ha (MATIN [1]; dosage 5 g/ha): 90%; pest or weed control at 20 g/ha (PHBPU [21]): 90%; pest or weed control at 80 g/ha (POLCO [22]): 100%; pest or weed control at 20 g/ha (DIGSA [11]): 100%; pest or weed control at 20 g/ha (MATIN [12]): 90%; pest or weed control at 80 g/ha (MATIN [12]): 100%; pest or weed control at 20 g/ha (AMARE [13]): 100%; pest or weed control at 5 g/ha (SETVI [23]; dosage 5 g/ha): 90%; pest or weed control at 20 g/ha (SETVI [23]; dosage 20 g/ha): 100%; pest or weed control at 20 g/ha (STEME [14]): 90%; pest or weed control at 5 g/ha (STEME [14]): 90%; pest or weed control at 80 g/ha (SETVI [15]): 100%; pest or weed control at 20 g/ha (DIGSA [16]): 90%; pest or weed control at 80 g/ha (DIGSA [16]): 100%; pest or weed control at 80 g/ha (PHBPU [24]): 80%; pest or weed control at 80 g/ha (ABUTH [17]): 100%; pest or weed control at 20 g/ha (ABUTH [17]): 100%; pest or weed control at 20 g/ha (AMARE [19]): 100%; pest or weed control at 80 g/ha (AMARE [19]): 100%; pest or weed control at 20 g/ha (ECHCG [20]): 80%
